A word on the IC50: it is the concentration that inhibits the measured activity by half.

Where only a bound is given, the exact number is not on record here.

The target in this assay is T1, rat CYP17 (Rattus norvegicus, UniProt P11715).
T1 construct: Rat testis tissue was collected and disrupted with 30 strokes of a glass homogenizer; from tissue; host or cells: rat testis (microsomal fraction)
T1 sequence (P11715 1-507): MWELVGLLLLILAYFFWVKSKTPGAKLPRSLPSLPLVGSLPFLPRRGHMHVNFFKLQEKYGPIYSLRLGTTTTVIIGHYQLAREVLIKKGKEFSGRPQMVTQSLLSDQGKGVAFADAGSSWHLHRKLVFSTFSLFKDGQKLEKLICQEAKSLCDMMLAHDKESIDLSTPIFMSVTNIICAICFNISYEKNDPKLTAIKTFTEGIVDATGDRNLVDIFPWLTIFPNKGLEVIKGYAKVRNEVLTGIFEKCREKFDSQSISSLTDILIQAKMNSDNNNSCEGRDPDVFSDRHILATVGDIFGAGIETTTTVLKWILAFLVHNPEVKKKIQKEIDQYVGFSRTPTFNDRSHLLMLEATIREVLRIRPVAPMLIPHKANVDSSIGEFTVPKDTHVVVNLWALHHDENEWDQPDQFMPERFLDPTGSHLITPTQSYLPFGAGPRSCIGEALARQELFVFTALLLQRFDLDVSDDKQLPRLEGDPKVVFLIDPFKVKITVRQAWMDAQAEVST
The assay can be described thus: CYP17 inhibition assay in rat testicular microsomes. Format: biochemical. The following applies: 3H3-17α-hydroxypregnenolone substrate, 60 minutes at 37° C. As to the method:
CYP17 Inhibition Assay in Rat Testicular Microsomes (Rat CYP17) or Yeast Microsome Overexpressing Human CYP17
A. Materials • 1. NADPH (Sigma): A working stock was prepared by adding 25 μL of 6.5 mM NADPH in each tube. The final concentration of NADPH used in the assay was 325 μM. • 2. Potassium Phosphate Buffer: One molar (1M) solutions of K2HPO4 and KH2PO4 were prepared. Eight mL of the 1 M KH2PO4 and 1.98 mL of the 1 M K2HPO4 were combined and the pH was adjusted to 7.4. • 3. ^3H3-17α-hydroxypregnenolone (American Radiolabeled Chemicals, Inc., stock 1 μCi/μL): A 1:1 dilution of ^3H3-17α-hydroxypregnenolone in ethanol was prepared by combining 100 μL ^3H3-17α-hydroxypregnenolone+100 μL ethanol for one complete 96 well plate. For the reaction, 2 μL of the diluted ^3H3-17α-hydroxypregnenolone was added in each tube, i.e., 1 μCi/reaction. • 4. Microsome Isolation Buffer: The microsome isolation buffer was prepared by combining 250 mM Sucrose, 5 mM EDTA, 10 mM Tris HCl, 4 mM DTT, and adjusting to pH 7.4. • 5. TEG Buffer: The TEG buffer was prepared by combining 50 mM Tris HCl, 1 mM EDTA, and 20% Glycerol. • 6. Rat Testicular Microsomes: Rat testis tissue was collected and disrupted with 30 strokes of a glass homogenizer on ice with 250 μL of microsome isolation buffer, followed by centrifugation at 10,000 g for 10 minutes at 4° C. The supernatant was collected and centrifuged at 100,000 g for 45 minutes at 4° C. The pellet was dissolved in TEG Buffer and the protein was quantified. The homogenized microsome samples were then frozen at −80° C. • 7. Yeast Microsomes which overexpress the human CYP17 enzyme were obtained from Premas Biotech, India.
Potassium phosphate buffer (470 μL) was prepared as described above and was added to each well of a deep well plate. The test compound was diluted using a TECAN liquid handler and 5 μL of diluted compound was transferred to each well (96 deep well/1 mL). A solution (25 μL) of 6.5 mM NADPH was added (final concentration of 325 µM in the assay). ^3H3-17α-hydroxypregnenolone (2 μL of the working stock) was added to each tube. The plates were then pre-incubated for 15 minutes at 37° C. Following the pre-incubation, either 5 μL rat testicular microsomes (150-160 μg) or 5 μL of yeast microsomes expressing human CYP17 (1.7 pmol), was added. Incubation was at 37° C. for 60 minutes in the presence of oxygen. The plates were then placed in ice and chloroform (500 μL) was added, mixed well and incubated at 4° C. for 20 minutes. The plates were then centrifuged at 1000 rpm for 15 minutes at 4° C.
A portion (300 μL) of the aqueous solution was collected and mixed with a 5% aqueous suspension of activated charcoal (300 μL). The plates were then incubated at 4° C. for 30 minutes, after which the plates were centrifuged at 1000 rpm for 15 minutes at 4° C. From this, 125 μL of the aqueous solution was collected and plated into a 96 well plate. Microscint™ 40 [125 μL, Perkin-Elmer; containing a mixture of a polymer based on alkylphenolethoxylate (20-40%), diethanolamine-phosphoric acid ester ammonium salt (10-20%), sodium dioctyl sulphosuccinate (2.5-10%), triethyl phosphate (2.5-10%), 3,6-dimethyl-4-octyne-3,6-diol (≦2.5%), a polymer based on nonylphenolethoxylate (≦2.5%), diisopropyl naphthalene isomers (40-60%), 2,5-diphenyloxazole (≦2.5%), and 9,10-dimethylanthracene] was added and mixed well. After 30 minutes of incubation, the samples were analyzed with a MicroBeta® Trilux microplate liquid scintillation counter and luminometer (Perkin-Elmer).

`CCC(c1cnc(-c2ccc(OC)cc2)s1)n1ccnc1` (centres unmarked) [Example 35, 5-(1-Imidazol-1-yl-propyl)-2-(4-methoxy-phenyl)-thiazole] registered a concentration for half-maximal inhibition (IC50) of under 50 nM.

In turn, `COc1ccc(-c2ccc(C(C)n3ccnc3)s2)cc1` (centres unmarked) [Example 36, 1-{1-[5-(4-Methoxy-phenyl)-thiophen-2-yl]-ethyl}-1H-imidazole] registered an IC50 of under 50 nM.

The compound `CCC(c1ccc(-c2ccccc2O)cn1)n1ccnc1` (centres unmarked) [Example 37, 2-[6-(1-Imidazol-1-yl-propyl)-pyridin-3-yl]-phenol] gave an IC50 of under 50 nM.

Turning to `CCC(c1cccc(-c2ccc(OC)cc2)n1)n1ccnc1` (centres unmarked) [Example 38, 2-(1-Imidazol-1-yl-propyl)-6-(4-methoxy-phenyl) pyridine], the IC50 was under 50 nM.

For `COc1ccc(-c2ccc(C(CC(C)C)n3ccnc3)s2)cc1` (centres unmarked) [Example 39, 1-{1-[5-(4-Methoxy-phenyl)-thiophen-2-yl]-3-methyl-butyl}-1H-imidazole], the IC50 was under 50 nM.

As to `CC(c1ccc(-c2ccccc2F)cn1)n1ccnc1` (centres unmarked) [Example 40, 5-(2-Fluoro-phenyl)-2-(1-imidazol-1-yl-ethyl)-pyridine], the IC50 is under 50 nM.

The compound `CCC(c1ccc(-c2ccc(CO)cc2)cn1)n1ccnc1` (centres unmarked) [Example 41, {4-[6-(1-Imidazol-1-yl-propyl)-pyridin-3-yl]-phenyl}-methanol] registered an IC50 of under 50 nM.

In turn, `COc1ccc(-c2cccc(C(C)n3ccnc3)n2)cc1` (centres unmarked) [Example 42, 2-(1-Imidazol-1-yl-ethyl)-6-(4-methoxy-phenyl)-pyridine] showed an IC50 of under 50 nM.

`CCC(c1ccc(-c2ccc(NC(C)=O)cc2)cn1)n1ccnc1` (centres unmarked) [Example 43, N-{4-[6-(1-Imidazol-1-yl-propyl)-pyridin-3-yl]-phenyl}-acetamide] displayed an IC50 of under 50 nM.

`CCC(c1cnc(-c2cn[nH]c2)s1)n1ccnc1` (centres unmarked) [Example 44, 5-(1-Imidazol-1-yl-propyl)-2-(1H-pyrazol-4-yl)-thiazole] displayed an IC50 of under 50 nM.

The compound `CCC(c1ccc(-c2cccc(F)c2)cn1)n1ccnc1` (centres unmarked) [Example 45, 5-(3-Fluoro-phenyl)-2-(1-imidazol-1-yl-propyl)-pyridine] showed an IC50 of under 50 nM.

`CCc1cc(F)ccc1-c1ncc(C(CC)n2ccnc2)s1` (centres unmarked) [Example 46, 2-(2-Ethyl-4-fluoro-phenyl)-5-(1-imidazol-1-yl-propyl)-thiazole] returned an IC50 of under 50 nM.

For `CCC(c1ccc(-c2ccc(OC)cc2)cn1)n1ccnc1` (centres unmarked) [Example 47, 2-(1-Imidazol-1-yl-propyl)-5-(4-methoxy-phenyl)-pyridine], the IC50 was under 50 nM.

For `CCC(c1ccc(-c2ccccc2F)cn1)n1ccnc1` (centres unmarked) [Example 48, 5-(2-Fluoro-phenyl)-2-(1-imidazol-1-yl-propyl)-pyridine], the IC50 was under 50 nM.

`CC(c1ccc(-c2ccc(O)cc2)s1)n1ccnc1` (centres unmarked) [Example 49, 4-[5-(1-Imidazol-1-yl-ethyl)-thiophen-2-yl]-phenol] yielded an IC50 of under 50 nM.

In the case of `CCC(c1ccc(-c2ccc(O)cc2)cn1)n1ccnc1` (centres unmarked) [Example 50, 4-[6-(1-Imidazol-1-yl-propyl)-pyridin-3-yl]-phenol], the IC50 was under 50 nM.

In turn, `CCC(c1cnc(-c2ccc(OC)nc2)s1)n1ccnc1` (centres unmarked) [Example 51, 5-[5-(1-Imidazol-1-yl-propyl)-thiazol-2-yl]-2-methoxy-pyridine] had a half-inhibitory concentration (IC50) of under 50 nM.

Take `CC(C)(c1ccc(-c2ccc(O)cc2)cn1)n1ccnc1` [Example 52, 4-[6-(1-Imidazol-1-yl-1-methyl-ethyl)-pyridin-3-yl]-phenol]: the IC50 was under 50 nM.

On to `CCC(c1ccc(-c2cccc(C#N)c2)cn1)n1ccnc1` (centres unmarked) [Example 53, 3-[6-(1-Imidazol-1-yl-propyl)-pyridin-3-yl]-benzonitrile], for which the 50% inhibitory concentration (IC50) was under 50 nM.

Regarding `CC(c1ccc(-c2ccc(F)cc2)nc1)n1ccnc1` (centres unmarked) [Example 54, 2-(4-Fluoro-phenyl)-5-(1-imidazol-1-yl-ethyl)-pyridine], the IC50 is under 50 nM.

Consider `CCOC(=O)c1ccc(-c2ncc(C(C)n3ccnc3)s2)cc1` (centres unmarked) [Example 55, 4-[5-(1-Imidazol-1-yl-ethyl)-thiazol-2-yl]-benzoic acid ethyl ester], for which the IC50 is under 50 nM.

`CCC(c1ccc(-c2ccccc2OC)cn1)n1ccnc1` (centres unmarked) [Example 56, 2-(1-Imidazol-1-yl-propyl)-5-(2-methoxy-phenyl)-pyridine] returned a half-maximal inhibitory concentration (IC50) of under 50 nM.

Compound `CC(c1ccc(-c2cccc(F)c2)cn1)n1ccnc1` (centres unmarked) [Example 57, 5-(3-Fluoro-phenyl)-2-(1-imidazol-1-yl-ethyl)-pyridine] showed an IC50 of under 50 nM.

`COc1ccc(-c2ncc(C(C)n3ccnc3)s2)cn1` (centres unmarked) [Example 58, 5-[5-(1-Imidazol-1-yl-ethyl)-thiazol-2-yl]-2-methoxy-pyridine]: the IC50 is 50 to 200 nM.

On to `CCC(c1cnc(-c2ccc(=O)[nH]c2)s1)n1ccnc1` (centres unmarked) [Example 59, 5-[5-(1-Imidazol-1-yl-propyl)-thiazol-2-yl]-1H-pyridin-2-one], for which the IC50 lay within 50 to 200 nM.

`CCC(c1cnc(-c2ccc(O)cc2)s1)n1ccnc1` (centres unmarked) [Example 60, 4-[5-(1-Imidazol-1-yl-propyl)-thiazol-2-yl]-phenol] came in with an IC50 of 50 to 200 nM.

Compound `COc1ccc(-c2ccc(C(C)(C)n3ccnc3)nc2)cc1` [Example 61, 2-(1-Imidazol-1-yl-1-methyl-ethyl)-5-(4-methoxy-phenyl)-pyridine] had a half-inhibitory concentration (IC50) of 50 to 200 nM.

`COc1ccc(-c2ccc(C(CC(C)C)n3ccnc3)nc2)cc1` (centres unmarked) [Example 62, 2-(1-Imidazol-1-yl-3-methyl-butyl)-5-(4-methoxy-phenyl)-pyridine] had a half-maximal inhibitory concentration (IC50) of 50 to 200 nM.

For `CC(c1cnc(-c2ccc(=O)[nH]c2)s1)n1ccnc1` (centres unmarked) [Example 63, 5-[5-(1-Imidazol-1-yl-ethyl)-thiazol-2-yl]-1H-pyridin-2-one], the 50% inhibitory concentration (IC50) lay in the range of 201 to 10000 nM.

`CC(=O)Nc1ccc(-c2ccc(C(C)n3ccnc3)nc2)cc1` (centres unmarked) [Example 64, N-{4-[6-(1-Imidazol-1-yl-ethyl)-pyridin-3-yl]-phenyl}-acetamide]: the 50% inhibitory concentration (IC50) was 201 to 10000 nM.

Turning to `CC(c1cnc(-c2ccc(C(=O)O)cc2)s1)n1ccnc1` (centres unmarked) [Example 65, 4-[5-(1-Imidazol-1-yl-ethyl)-thiazol-2-yl]-benzoic acid], the IC50 fell in the range of 201 to 10000 nM.

The compound `COc1ccc(-c2cccnc2C(C)n2ccnc2)cc1` (centres unmarked) [Example 66, 2-(1-(1H-imidazol-1-yl)ethyl)-3-(4-methoxyphenyl)-pyridine] returned a half-maximal inhibitory concentration (IC50) of 50 to 200 nM.

(Values after patent publication US9199975B2, “Biaryl imidazole derivatives for regulating CYP17” (Asana Biosciences, LLC, priority 2011, dated 2015).)
